The record followed here is patent US20050107316A1, “Agent for inhibiting development or progress of proliferative diseases and especially cancer diseases and pharmaceutical composition containing said agent” (priority 2002, published 2005).

One data set relates to PLK1. The experiment in a line: In vitro kinase assay with PLK1 purified from Sf 9 cells. The class given is biochemical, human. On the procedure:
PLK1 purified from Sf 9 cells was incubated with 0.5-1 μg of PLK1-specific substrates and 2 μCi of […] for 20 min at 37° C. in kinase buffer (20 mM HEPES pH 7.4, 150 mM KCl, 10 mM MgCl2, 1 mM EGTA, 0.5 mM DTT, 5 mM NaF, 0.1 mM Na3VO4 and 100 μM ATP).

Another data set concerns Saos-2 cells. The experiment in a line: Growth inhibition assay with peptides, Saos-2. The class given is cell-based, human. Conditions: Saos-2, 5 μM. As to the method:
(§1) Cancer cell lines HeLa S3 (cervix), MCF-7 (breast) and Saos-2 (osteosarcoma) were grown at 37° C. in 5% CO2 in Ham's F 12, RPMI 1640 and McCoy's 5a medium, respectively containing 10% FBS, 2 mM L-glutamine. To assay for growth inhibition, exponentially growing cells (0.3-2.5×10^4) were seeded into 24-well plates. On the following day cells were incubated with peptides at varying concentrations without serum for 3 h followed by addition of complete medium. On day 3, 6 and 8 cells were treated again and harvested on day 3, 6, 8 and 10 to determine cell numbers using a Hemacytometer. Cell viability was assessed by trypan blue staining. Each experiment was repeated at least three times.

Data set [1] has as its system primary epithelial cells (HMEC). The experiment in a line: Growth inhibition with peptides, primary epithelial cells. The class given is cell-based, human.
Data set [2] has as its system HeLa S3 cells. As to the kind of experiment: Growth inhibition assay with peptides, HeLa S3. Type of data set: cell-based, human. Conditions: HeLa S3, 5 μM. As to the method: as §1
In a further data set the test system is MCF-7 cells. Type of data set: cell-based, human. As to the method:
as §1

A further data set deals with MCF-7 and HeLa S3 cells. The experiment in a line: Annexin V apoptosis assay and DNA staining after peptide treatment. The class given is cell-based, human. As to the method:
Cells were seeded into 6-well plates, allowed to attach overnight, and then treated with different peptides at a concentration of 10 μM. Cells were trypsinized after 16 h and incubated with Annexin V according to the manufacturer's recommendations (Mo Bi Tech).

Data set [3] has as its system HeLa S3 cells. As to the kind of experiment: DNA and tubulin staining of polo-box-treated cells. Type of data set: cell-based, human. On the procedure: (§2) For staining cells were grown in slide flasks and treated with peptides for 24 h. Then, cells were fixed in 4% paraformaldehyde for 30 min, permeabilized in 0.2% Triton X-100 for 20 min and stained with α-tubulin (Serotec/Biozol, Eching) 1:100, polyclonal rabbit PLK1 1:100, or monoclonal α-tubulin (Sigma) 1:100. Stained cells were analyzed with a confocal laser scan microscope (CLSM) or a fluorescence microscope.

In data set [4] the test system is HeLa S3 cells. As to the kind of experiment: Cell cycle analysis and count of mitotic cells after peptide treatment, HeLa S3. The class given is cell-based, human. As to the method: Cell cycle analysis was performed using a Cycle TEST™ PLUS DNA reagent kit (Becton Dickinson) according to the manufacturer's instructions. Briefly, cells were washed with PBS, treated with RNase A and stained with propidium iodide (PI). The analysis was performed using a Becton Dickinson FACScan flow cytometer. Using the MODFIT LT 2.0 software (Verity Software House, Topsham, Me.) for each individual sample 30,000 cells were analyzed.
as §2

“H-WVSKWVDYSDKYGLGYQLCDRQIKIWFQNRRMKWKK-OH [Peptide P1]”: the “Inhibitory effect on phosphorylation” value in the data set on PLK1 (6.25 to 25.0 μM, wild-type compared with mutated form P2) was “at least two fold more inhibition”; in the data set with PLK1 (below 1.56 μM), “still exhibited some effect”. Moreover, the “Phosphorylation of substrates by PLK1” value with PLK1 (37° C., 20 min) was “decreased the phosphorylation of substrates clearly”. For the same substance, the “Inhibitory effect on cell proliferation” value in the data set with Saos-2 cells was “intermediate effect”; in the data set on HeLa S3 cells [2], “little inhibition”; in the data set with MCF-7 cells (MCF-7, 5 μM) it was “most prominent in MCF-7 cells”. The Inhibition of proliferation entry in data set [1] is reported as “to a much lower extent than MCF-7 cells”. Also, the “Concentration with general toxic effect” value in the data set with MCF-7 cells is on record as “above 20 μM”. Besides, in the data set on MCF-7 cells (MCF-7), the “Concentrations that started to inhibit proliferation” value is “above 1 μM”. Besides, the “Range of dose-dependent inhibition of proliferation” value with MCF-7 cells (MCF-7) was 1 to 10 µM. Also, the Growth behavior entry in the data set with MCF-7 cells (MCF-7, 0.01 to 0.5 μM) is on record as “did not affect the growth behavior”. Further, the Apoptotic cells entry in the data set with MCF-7 and HeLa S3 cells (10 μM, 16 h annexin V and PI, DNA staining after 1 day) is on record as “elevated percentage of apoptotic cells”. Further, the Apoptotic peak in the data set on MCF-7 and HeLa S3 cells (time of treatment) is 24 h. The “Start of the inhibitory effect” value in the data set with MCF-7 and HeLa S3 cells (time of treatment) came out at 10 h. In addition, in the data set with HeLa S3 cells [3], the Chromosomes result was “misaligned, not properly segregated and partially condensed”. For the same substance, in the data set with HeLa S3 cells [4] (HeLa S3, 24 h, 5 μM), the “Increase of mitotic cells compared to control cells” value is listed as 3-4 fold. Besides, the “Percentage of mitotic cells” value with HeLa S3 cells [4] (HeLa S3, 24 h, 5 μM) is 14.7%. In addition, the “Increase of cells in G2/M compared to control cells” value in the data set on HeLa S3 cells [4] (HeLa S3, day 6, 5 μM) is 25-35%.
